Experimental data taken from PubChem BioAssay (NCI).
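Results reflect a 48-hour exposure of cells in 96-well plates to compound at five concentrations. The concentration for 50% growth inhibition is given as GI50. Definition used: TGI = concentration required for complete inhibition of growth.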

Key:
Assay in all cases: inhibition of tumour cell growth, NCI panel, 48 h
SW-620 colon = tested on: SW-620 colon
IGROV1 ovarian = tested on: IGROV1 ovarian
RXF 393 renal = tested on: RXF 393 renal
M14 melanoma = tested on: M14 melanoma
HCT-15 colon = tested on: HCT-15 colon
UACC-62 melanoma = tested on: UACC-62 melanoma
CAKI-1 renal = tested on: CAKI-1 renal
NCI-H460 lung = tested on: NCI-H460 lung
786-0 renal = tested on: 786-0 renal
NCI-H23 lung = tested on: NCI-H23 lung

SMILES | TGI (SW-620 colon) [µM] | TGI (IGROV1 ovarian) [µM] | TGI (RXF 393 renal) [µM] | TGI (M14 melanoma) [µM] | TGI (HCT-15 colon) [µM] | TGI (UACC-62 melanoma) [µM] | TGI (CAKI-1 renal) [µM] | TGI (NCI-H460 lung) [µM] | TGI (786-0 renal) [µM] | TGI (NCI-H23 lung) [µM] | GI50 (NCI-H460 lung) [µM] | GI50 (SW-620 colon) [µM] | GI50 (IGROV1 ovarian) [µM] | GI50 (RXF 393 renal) [µM] | GI50 (UACC-62 melanoma) [µM] | GI50 (CAKI-1 renal) [µM]
N#CCCN(CCC#N)c1ccc(/C=C(/NC(=O)Nc2ccccc2Cl)NC(=O)c2cc([N+](=O)[O-])ccc2Cl)cc1 | > 100 | > 100 | > 100 | > 100 | > 100 | > 100 | > 100 | – | – | – | – | – | – | – | – | –
O=C(NCc1ccccc1)C1C(=O)C(=O)N(Cc2ccccc2)C1=O (stereo unspecified) | > 100 | > 100 | > 100 | > 100 | > 100 | > 100 | > 100 | > 100 | > 100 | > 100 | – | – | – | – | – | –
COC1(OC)C2C=CC1C([C@](C)(N)CO)C2 (stereo partly specified) | > 100 | > 100 | > 100 | > 100 | – | > 100 | > 100 | > 100 | > 100 | > 100 | – | – | – | – | – | –
Cc1cc(C)c(C(=O)C(C)C(c2ccccc2)c2ccc(Cl)cc2)c(C)c1 (stereo unspecified) | > 100 | > 100 | > 100 | > 100 | > 100 | > 100 | > 100 | > 100 | > 100 | > 100 | – | – | – | – | – | –
CCC(=O)CCC1=Nc2nnc(CCCCc3nnc4n3C(=O)C(CCC(=O)CC)=N4)n2C1=O | > 100 | > 100 | > 100 | > 100 | > 100 | > 100 | > 100 | > 100 | > 100 | > 100 | – | – | – | – | – | –
COc1ccc(/C=C/c2nc(=S)[nH][nH]2)cc1OC | > 100 | > 100 | > 100 | > 100 | > 100 | > 100 | > 100 | > 100 | > 100 | > 100 | – | – | – | – | – | –
Clc1ccc(N2N=C(c3cccc(Nc4ccncc4)c3)CC2c2ccc(Br)cc2)cc1 (stereo unspecified) | 3.51 | 3.41 | 3.02 | – | – | 3.25 | 2.9 | 3.53 | – | – | 1.85 | 1.73 | 1.8 | 1.62 | 1.77 | 1.52
CC1OC(CC2C=CCc3c(O)c4c(c(O)c32)C(=O)c2ccccc2C4=O)CC(NC(=O)C(F)(F)F)C1O (stereo unspecified) | 81.5 | 44.6 | 7.77 | 16.1 | 55.9 | 17.4 | 20.7 | 24.1 | 23.2 | 20.7 | – | – | – | – | – | –
O=S(=O)(CF)OCCCCOS(=O)(=O)CF | > 100 | > 100 | – | > 100 | > 100 | > 100 | > 100 | > 100 | – | > 100 | – | – | – | – | – | –
CC(O)C1OC(n2ccc(=O)[nH]c2=O)CC1n1cncn1 (stereo unspecified) | > 100 | > 100 | > 100 | > 100 | > 100 | > 100 | > 100 | > 100 | > 100 | > 100 | – | – | – | – | – | –
CN(C(=O)c1ccccc1)c1ccc2c(c1)C(=O)c1ccccc1C2=O | > 100 | > 100 | > 100 | > 100 | > 100 | > 100 | > 100 | > 100 | – | > 100 | – | – | – | – | – | –
COC(=O)/C(=N\N)C(C(=O)C(=O)Nc1nc(=S)[nH][nH]1)c1nc2ccc([N+](=O)[O-])cc2[nH]c1=O (stereo unspecified) | > 100 | > 100 | > 100 | > 100 | > 100 | > 100 | > 100 | > 100 | > 100 | > 100 | – | – | – | – | – | –
CCOC(=O)c1ccn2c(c1)c(C#N)c1nc3ccccc3nc12 | > 100 | 59.8 | – | > 100 | > 100 | 25.7 | > 100 | > 100 | > 100 | > 100 | – | – | – | – | – | –
CC(C)=CCOc1ccc(-c2coc3cc4c(c(O)c3c2=O)C=CC(C)(C)O4)cc1 | > 100 | > 100 | > 100 | – | > 100 | – | – | > 100 | > 100 | > 100 | – | – | – | – | – | –
Cn1c(=O)[nH]c2c(c1=O)C(=O)CN2 | > 100 | > 100 | > 100 | > 100 | > 100 | – | > 100 | > 100 | – | – | – | – | – | – | – | –
COC(=O)C(=O)C(C(C)=O)C(=O)C(=O)Nc1ccc(C)cc1C (stereo unspecified) | > 100 | > 100 | > 100 | > 100 | > 100 | > 100 | > 100 | > 100 | – | > 100 | – | – | – | – | – | –
CCCCCC(/C=C/c1ncccc1OCCCCCC(=O)O)=N\NC1=NCCN1 | > 100 | > 100 | > 100 | > 100 | > 100 | > 100 | > 100 | > 100 | – | – | – | – | – | – | – | –
C[Si](C)(C)/C=C/CN1C(=O)CCC1=O | > 100 | > 100 | – | > 100 | > 100 | > 100 | – | > 100 | – | > 100 | – | – | – | – | – | –
C/C(=C\CC/C=C(\C)CC/C=C(\C)CCC1SC1(C)C)CC/C=C(\C)CCC1OC1(C)C (stereo unspecified) | > 100 | > 100 | > 100 | > 100 | > 100 | – | > 100 | > 100 | > 100 | > 100 | – | – | – | – | – | –
